# Measurements: publication PMC5964007 (Nature chemical biology, 2018)
# Tests used:
# [1] = target: T1, E. coli penicillin amidase (Escherichia coli, UniProt P06875); assay: pH-shift colorimetric kinetic assay; format: biochemical; conditions: pH 8.4, 10 mM m-nitrophenol, 25 °C, 5 U/ml enzyme
# [2] = target: T1, E. coli penicillin amidase; assay: pH-shift colorimetric kinetic assay; format: biochemical; conditions: 5 mM MOPS pH 7.2, 25 °C
# T1 sequence (P06875 27-235): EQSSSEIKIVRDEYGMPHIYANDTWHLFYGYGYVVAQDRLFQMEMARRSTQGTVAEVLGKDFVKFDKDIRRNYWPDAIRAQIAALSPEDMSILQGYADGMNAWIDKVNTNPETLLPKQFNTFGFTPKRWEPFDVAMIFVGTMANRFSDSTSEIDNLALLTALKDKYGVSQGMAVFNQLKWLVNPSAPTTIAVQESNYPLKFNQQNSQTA
# T1 sequence (P06875 290-846): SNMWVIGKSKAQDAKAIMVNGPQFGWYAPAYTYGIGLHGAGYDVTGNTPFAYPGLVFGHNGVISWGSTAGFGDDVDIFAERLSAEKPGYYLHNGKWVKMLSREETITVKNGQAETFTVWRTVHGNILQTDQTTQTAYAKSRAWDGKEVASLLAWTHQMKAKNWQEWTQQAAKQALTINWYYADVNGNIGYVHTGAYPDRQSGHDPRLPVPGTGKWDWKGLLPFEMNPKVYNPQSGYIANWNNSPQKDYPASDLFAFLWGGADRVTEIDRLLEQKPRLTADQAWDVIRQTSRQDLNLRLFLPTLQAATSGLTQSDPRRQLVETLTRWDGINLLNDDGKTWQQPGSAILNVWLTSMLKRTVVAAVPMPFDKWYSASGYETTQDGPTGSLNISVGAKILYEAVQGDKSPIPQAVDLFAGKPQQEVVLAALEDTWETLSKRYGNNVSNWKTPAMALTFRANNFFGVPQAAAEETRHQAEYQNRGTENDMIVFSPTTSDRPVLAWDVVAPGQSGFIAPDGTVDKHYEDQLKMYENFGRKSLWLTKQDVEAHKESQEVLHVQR
SMILES,pH-shift colorimetric kinetic assay (m-nitrophenol); LCMS [1],pH-shift colorimetric kinetic assay (p-nitrophenol) [2]
CC1(C)S[C@H]([C@H](NC(=O)Cc2ccccc2)C(=O)O)N[C@H]1C(=O)O [benzylpenicilloic acid],when both Put1 and E. coli penicillin amidase were incubated with benzylpenicilloic acid as a substrate,
CC1(C)S[C@@H]2[C@H](NC(=O)Cc3ccccc3)C(=O)N2[C@H]1C(=O)O [penicillin],,E. coli penicillin amidase and commercial B. cereus β-lactamase enzymes exhibit Michaelis-Menten kinetics with penicillin
